Values quoted from earlier work as cited in patent publication US20130143897A1, “ORAL CONTROLLED RELEASE PHARMACEUTICAL COMPOSITIONS OF BLONANSERIN” (LUPIN LIMITED, priority 2010, published 2013).

Experiments:
dopamine (D2) receptors = dopamine (D2) receptors (Homo sapiens, UniProt P14416)
serotonin (S2) receptors = serotonin (S2) receptors (Homo sapiens, UniProt P28223)
Chain of serotonin (S2) receptors (P28223 whole entry): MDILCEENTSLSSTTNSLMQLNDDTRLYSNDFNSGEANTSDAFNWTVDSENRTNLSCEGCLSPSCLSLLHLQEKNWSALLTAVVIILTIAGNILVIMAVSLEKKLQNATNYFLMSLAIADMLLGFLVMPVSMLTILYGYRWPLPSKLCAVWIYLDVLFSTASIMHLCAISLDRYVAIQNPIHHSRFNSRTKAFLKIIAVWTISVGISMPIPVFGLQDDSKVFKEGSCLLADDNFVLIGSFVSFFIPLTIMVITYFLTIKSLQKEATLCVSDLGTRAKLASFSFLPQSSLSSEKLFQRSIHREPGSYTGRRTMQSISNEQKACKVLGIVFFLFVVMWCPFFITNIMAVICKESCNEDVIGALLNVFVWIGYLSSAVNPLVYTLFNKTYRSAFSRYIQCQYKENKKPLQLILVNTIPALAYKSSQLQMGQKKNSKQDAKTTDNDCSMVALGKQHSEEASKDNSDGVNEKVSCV

Chain of dopamine (D2) receptors (P14416 whole entry): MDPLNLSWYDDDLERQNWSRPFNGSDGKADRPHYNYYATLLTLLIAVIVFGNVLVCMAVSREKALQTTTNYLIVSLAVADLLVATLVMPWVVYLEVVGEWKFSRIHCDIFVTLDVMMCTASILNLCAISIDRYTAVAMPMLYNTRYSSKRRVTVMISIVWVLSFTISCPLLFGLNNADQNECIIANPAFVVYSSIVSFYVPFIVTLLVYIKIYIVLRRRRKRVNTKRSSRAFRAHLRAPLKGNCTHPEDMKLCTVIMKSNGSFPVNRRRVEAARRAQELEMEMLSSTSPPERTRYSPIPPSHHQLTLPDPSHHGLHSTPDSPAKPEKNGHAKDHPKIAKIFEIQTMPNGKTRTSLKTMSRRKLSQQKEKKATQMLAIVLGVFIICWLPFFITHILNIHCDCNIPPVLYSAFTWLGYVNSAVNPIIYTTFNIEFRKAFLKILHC

binding property to dopamine (D2) receptors (dopamine (D2) receptors): potent | binding property to serotonin (S2) receptors (serotonin (S2) receptors): potent | solubility in water: poor
SMILES: CCN1CCN(c2cc(-c3ccc(F)cc3)c3c(n2)CCCCCC3)CC1 [Blonanserin, 2-(4-Ethyl-1-piperazinyl)-4-(4-fluorophenyl)-5,6,7,8,9,10-hexahydrocycloocta[b]pyridine]
